Drawing on PubChem BioAssay AID1963431 (Molecular Pharmacology Branch, DTP, NCI, 2024), this text covers IC50 and viability, T/C for five compounds.

Several values for one entry are separate records, joined by “and”; a condition that tells them apart may be missing. Equal entries are not always repeated.

For this assay, the system named is Rh18 complex spheroid viability, percent test/control. The assay is described as follows: Anticancer human tumor Rh18 cell line growth inhibition [Asc].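 For all read-outs here: spheroids exposed to compound for 7 days.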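 For viability, T/C: 100% = DMSO vehicle control wells.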 Conditions: for viability, T/C: stronger effect = lower value. The method, boiled down:
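Complex spheroids combining tumor cells with HUVEC endothelial cells and human MSCs, at 37 degrees C, 5% CO2; agents tested alone or combined, half-log dilutions from at or near clinical Cmax, or 10 microM if Cmax unknown.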

Setting [1] is: curve of first compound, second compound 0.1 µM.
The mark [2] stands for this setting: curve of first compound, second compound 0.316 µM.
The mark [3] stands for this setting: curve of first compound, second compound 1 µM.
Where [4] appears, read: curve of first compound, second compound 3.16 µM.
[5] abbreviates: curve of first compound, second compound 10 µM.
Where [6] appears, read: second compound 0.1 µM, first compound 0.0316 µM.
[7] abbreviates: second compound 0.1 µM, first compound 0.1 µM.
Setting [8] is: second compound 0.1 µM, first compound 0.316 µM.
[9] abbreviates: second compound 0.1 µM, first compound 1 µM.
Where [10] appears, read: second compound 0.316 µM, first compound 0.0316 µM.
Where [11] appears, read: second compound 0.316 µM, first compound 0.1 µM.
Setting [12] is: second compound 0.316 µM, first compound 0.316 µM.
[13] abbreviates: second compound 0.316 µM, first compound 1 µM.
Setting [14] is: second compound 1 µM, first compound 0.0316 µM.
[15] abbreviates: second compound 1 µM, first compound 0.1 µM.
Where [16] appears, read: second compound 1 µM, first compound 0.316 µM.
Setting [17] is: second compound 1 µM, first compound 1 µM.
[18] abbreviates: second compound 3.16 µM, first compound 0.0316 µM.
Where [19] appears, read: second compound 3.16 µM, first compound 0.1 µM.
The mark [20] stands for this setting: second compound 3.16 µM, first compound 0.316 µM.
Setting [21] is: second compound 3.16 µM, first compound 1 µM.
[22] abbreviates: second compound 10 µM, first compound 0.0316 µM.
[23] abbreviates: second compound 10 µM, first compound 0.1 µM.
The mark [24] stands for this setting: second compound 10 µM, first compound 0.316 µM.
The mark [25] stands for this setting: second compound 10 µM, first compound 1 µM.

The term IC50 denotes the concentration that inhibits the measured activity by half. A word on the viability, T/C: it is the result in the treated group divided by that in the control group, in per cent. With `NC(=O)C(=Cn1cnc(-c2cc(C(F)(F)F)cc(C(F)(F)F)c2)n1)c1cncnc1` + Cc1c(S(C)(=O)=O)c(-c2cc(F)cc(N3CCN(c4ccc(NS(=O)(=O)c5ccc(NC(CCN6CCC(C(=O)OCCCP(=O)(O)O)CC6)CSc6ccccc6)c(S(=O)(=O)C(F)(F)F)c5)cc4)CC3)c2)c(-c2ccc(Cl)cc2)n1C(C)C, the IC50 by setting is: under setting [1], under 0.000949 µM; under setting [2], under 0.000949 µM; under setting [3], under 0.000949 µM; under setting [4], under 0.000949 µM; under setting [5], under 0.000949 µM. The viability, T/C is, setting by setting: (second compound 0.1 µM, first compound 0.000949 µM) 13.5%; (second compound 0.1 µM, first compound 0.003 µM) 16.7%; (second compound 0.1 µM, first compound 0.00949 µM) 18.6%; (second compound 0.1 µM, first compound 0.03 µM) 13.7%; (second compound 0.1 µM, first compound 0.0949 µM) 9.41%; (second compound 0.1 µM, first compound 0.3 µM) 5.69%. Besides, the viability, T/C is, setting by setting: (second compound 0.316 µM, first compound 0.000949 µM) 15.2%; (second compound 0.316 µM, first compound 0.003 µM) 13.6%; (second compound 0.316 µM, first compound 0.00949 µM) 10.8%; (second compound 0.316 µM, first compound 0.03 µM) 9.84%; (second compound 0.316 µM, first compound 0.0949 µM) 9.11%; (second compound 0.316 µM, first compound 0.3 µM) 3.67%. Moreover, the viability, T/C is 10.2% (second compound 1 µM, first compound 0.000949 µM); 9.49% (second compound 1 µM, first compound 0.003 µM); 8.9% (second compound 1 µM, first compound 0.00949 µM); 7.48% (second compound 1 µM, first compound 0.03 µM); 7.03% (second compound 1 µM, first compound 0.0949 µM); 2.37% (second compound 1 µM, first compound 0.3 µM). Moreover, the viability, T/C was 7.63% (second compound 3.16 µM, first compound 0.000949 µM); 8.78% (second compound 3.16 µM, first compound 0.003 µM); 7.9% (second compound 3.16 µM, first compound 0.00949 µM); 5.11% (second compound 3.16 µM, first compound 0.03 µM); 4.79% (second compound 3.16 µM, first compound 0.0949 µM); 2.11% (second compound 3.16 µM, first compound 0.3 µM). For the same compound, the viability, T/C is 4.44% (second compound 10 µM, first compound 0.000949 µM); 6.25% (second compound 10 µM, first compound 0.003 µM); 6.34% (second compound 10 µM, first compound 0.00949 µM); 5.72% (second compound 10 µM, first compound 0.03 µM); 3.51% (second compound 10 µM, first compound 0.0949 µM); 1.84% (second compound 10 µM, first compound 0.3 µM).
On to `NC(=O)C(=Cn1cnc(-c2cc(C(F)(F)F)cc(C(F)(F)F)c2)n1)c1cncnc1`, for which the viability, T/C runs as follows: (compound 0.000949 µM) 85.9% and 82.9% and 85.5%; (compound 0.003 µM) 93.2% and 85.7% and 79.2%; (compound 0.00949 µM) 92.8% and 63.3% and 67.5%; (compound 0.03 µM) 53.9% and 57.6% and 61%; (compound 0.0949 µM) 40.6% and 46.8% and 52.6%; (compound 0.3 µM) 32.3% and 31.4% and 34.7%. The IC50 (curve of compound) was 0.0388 µM and 0.0583 µM and 0.0887 µM.
In the case of `C=C(F)C(=O)N1CCN(c2nc(OCC3CCCN3C)nc3c2CCN(c2cccc4cccc(Cl)c24)C3)CC1CC#N` (centres undefined) + Cc1c(S(C)(=O)=O)c(-c2cc(F)cc(N3CCN(c4ccc(NS(=O)(=O)c5ccc(NC(CCN6CCC(C(=O)OCCCP(=O)(O)O)CC6)CSc6ccccc6)c(S(=O)(=O)C(F)(F)F)c5)cc4)CC3)c2)c(-c2ccc(Cl)cc2)n1C(C)C, the IC50 reads like this: under setting [1], under 0.0316 µM; under setting [2], under 0.0316 µM; under setting [3], under 0.0316 µM; under setting [4], under 0.0316 µM; under setting [5], under 0.0316 µM. In addition, the viability, T/C by setting is: under setting [6], 13.9%; under setting [7], 14.1%; under setting [8], 16.8%; under setting [9], 18.4%; (second compound 0.1 µM, first compound 3.16 µM) 4.57%; (second compound 0.1 µM, first compound 10 µM) 0.19%. The viability, T/C by setting is: under setting [10], 6.98%; under setting [11], 8.95%; under setting [12], 10.2%; under setting [13], 10.4%; (second compound 0.316 µM, first compound 3.16 µM) 1.87%; (second compound 0.316 µM, first compound 10 µM) 0.13%. Further, the viability, T/C runs as follows: under setting [14], 7.24%; under setting [15], 8.76%; under setting [16], 10.9%; under setting [17], 8.02%; (second compound 1 µM, first compound 3.16 µM) 0.6%; (second compound 1 µM, first compound 10 µM) 0.14%. The viability, T/C is, setting by setting: under setting [18], 7.34%; under setting [19], 7.03%; under setting [20], 8.15%; under setting [21], 4.6%; (second compound 3.16 µM, first compound 3.16 µM) 0.19%; (second compound 3.16 µM, first compound 10 µM) 0.18%. Also, the viability, T/C is 4.96% under setting [22]; 5.5% under setting [23]; 5.96% under setting [24]; 4.82% under setting [25]; 0.38% (second compound 10 µM, first compound 3.16 µM); 0.23% (second compound 10 µM, first compound 10 µM).
For the compound `COc1c(OCCCN2CCOCC2)ccc2c3n(c(=NC(=O)c4cnc(N)nc4)nc12)CCN3`, the viability, T/C reads like this: (compound 0.00316 µM) 64.9% and 91.3% and 71.5%; (compound 0.01 µM) 50.6% and 55% and 53.8%; (compound 0.0316 µM) 15.9% and 20.9% and 23.7%; (compound 0.1 µM) 6.98% and 6.83% and 7.49%; (compound 0.316 µM) 3.1% and 3.42% and 2.99%; (compound 1 µM) 1.11% and 1.4% and 0.6%. Besides, the 50% inhibitory concentration (IC50) (curve of compound) was 0.0101 µM and 0.0118 µM and 0.0115 µM.
As for `CCN1CCN(Cc2ccc(Nc3ncc(F)c(-c4cc(F)c5nc(C)n(C(C)C)c5c4)n3)nc2)CC1` + Cc1c(S(C)(=O)=O)c(-c2cc(F)cc(N3CCN(c4ccc(NS(=O)(=O)c5ccc(NC(CCN6CCC(C(=O)OCCCP(=O)(O)O)CC6)CSc6ccccc6)c(S(=O)(=O)C(F)(F)F)c5)cc4)CC3)c2)c(-c2ccc(Cl)cc2)n1C(C)C, the IC50 reads like this: under setting [1], under 0.00316 µM; under setting [2], under 0.00316 µM; under setting [3], under 0.00316 µM; under setting [4], under 0.00316 µM; under setting [5], under 0.00316 µM. The viability, T/C was 12.9% (second compound 0.1 µM, first compound 0.00316 µM); 10.8% (second compound 0.1 µM, first compound 0.01 µM); 12.1% under setting [6]; 10.3% under setting [7]; 17.6% under setting [8]; 16.5% under setting [9]. The viability, T/C was 9.27% (second compound 0.316 µM, first compound 0.00316 µM); 8.57% (second compound 0.316 µM, first compound 0.01 µM); 8.42% under setting [10]; 8.33% under setting [11]; 9.57% under setting [12]; 13.1% under setting [13]. The viability, T/C by setting is: (second compound 1 µM, first compound 0.00316 µM) 7.77%; (second compound 1 µM, first compound 0.01 µM) 7.58%; under setting [14], 7.78%; under setting [15], 7.11%; under setting [16], 8.27%; under setting [17], 11.2%. The viability, T/C is, setting by setting: (second compound 3.16 µM, first compound 0.00316 µM) 5.69%; (second compound 3.16 µM, first compound 0.01 µM) 6.84%; under setting [18], 6.29%; under setting [19], 6.51%; under setting [20], 6.86%; under setting [21], 8.35%. The viability, T/C is 4.28% (second compound 10 µM, first compound 0.00316 µM); 4.29% (second compound 10 µM, first compound 0.01 µM); 5.21% under setting [22]; 7.08% under setting [23]; 6.28% under setting [24]; 10.4% under setting [25].
